Legend:
ADP-HSP70 (WT, aa 1-641) = molecular target: T1, ADP-HSP70 (WT, aa 1-641) (Homo sapiens, UniProt P0DMV8, E110D); assay: ITC binding to ADP-bound full-length HSP70
T1 construct: Full-length recombinant proteins of HSP70 (aa 1-641) as well as DnaK (aa 1-638); His6 (N); made in house; host or cells: E. coli BL21 Star (DE3)
Source text: The human stress-inducible HSP70 (residues 1-641 or 386-616 of SEQ ID NO: 2) and E. coli DnaK (residues 1-638, 389-607, or 393-507 of SEQ ID NO: 4) were cloned into the pET25 vector (EMD Millipore Chemicals, Inc., Billerica, Mass., USA) between the NdeI and XhoI restriction sites. The full-length HSP70 and DnaK mutants were constructed by PCR-based site-directed mutagenesis using the QuikChange™ Site-Directed Mutagenesis Kit (Agilent Technologies, Inc., Santa Clara, Calif., USA). All plasmid inserts were verified by DNA sequencing. All HSP70 and DnaK variants were produced with a N-terminal His6-tag in the E. coli BL21 Star (DE3) strain (Invitrogen catalog number C6010-03). The resulting strains were grown at 37° C. in LB medium containing 50 μg/mL of carbenicillin (Sigma-Aldrich Co., St. Louis, Mo., USA). At an OD600 about 0.3 to about 0.5, protein expression was induced with 0.5 mM isopropyl-β-D-thiogalactopyranoside (IPTG), and cells were subsequently grown at 25° C. for about 16 h. Cells were collected by centrifugation and resuspended in the Bugbuster® Master Mix (EMD Millipore Chemicals catalog number 71456-4), supplemented with protease inhibitors, 1 mM diethiothreitol (DTT) and 20 mM imidazole. The His6-tagged fusion proteins were isolated on Ni^2+-chelating resins (Ni-NTA Superflow, Qiagen catalog number 30410) by standard procedures. When necessary, size-exclusion chromatography on a Superdex® 200 or a Superose® 6 10/300 GL columns (GE Healthcare) analytical column pre-equilibrated with 1× Dulbecco's Phosphate Buffered Saline (DPBS—Invitrogen 14190-136), 1 mM Tris-HCl (pH 7.4) or 10 mM Tris-HCl (pH 7) was used as the final purification step. The purified DnaK proteins were dialyzed thoroughly against 1× DPBS with 5 mM DTT at 4° C., for crystallization trials involving the small molecule inhibitor PET-16. For isothermal titration calorimetry studies, all HSP70 and DnaK variants were dialyzed extensively against the buffers as noted below under the section entitled “Isothermal Titration calorimetry Studies”. The dialyzed proteins were subsequently microcentrifugated at 15,000×g for 5 min at 4° C. and aliquots of the soluble proteins were stored at −80° C.
All ITC experiments were performed using a MicroCal VP-ITC isothermal titration calorimeter (MicroCal). Both full-length HSP70 and DnaK proteins and DnaK (aa 393-507) proteins were prepared in 1 mM Tris-HCl (pH 7.4) buffer containing 3% dimethylsulfoxide (DMSO). The HSP70 (aa 386-616) protein was prepared in buffer containing 3% DMSO and 10 mM Tris-HCl, pH 7. The syringe was loaded with purified protein in either 1 mM Tris-HCl (pH 7.4) buffer containing 3% DMSO or 10 mM Tris-HCl (pH 7) buffer containing 3% DMSO. The sample cell of the calorimeter was loaded with PES, PET-16 or NRLLLTG (SEQ ID NO: 7) prepared in the same buffer. All solutions were degassed for 5 min.
The titrations involving the full-length purified proteins were performed at 25° C. with injection volumes of 12 μL and a spacing of 300 s. The titrations involving the purified HSP70 (aa 386-616) and DnaK (aa 393-507) were performed at 42° C. with injection volumes of 12 μL and a spacing of 300 s. Heat from the pre-injection was not used during fitting. The data were fit using a one-site binding model available in the Origin® ITC data analysis software (MicroCal Origin® V5.0, MicroCal Software, Northampton, Mass.). Error values obtained from the MicroCal Origin® V5.0 software were averaged and reported. […]

HSP70 = molecular target: T2, HSP70 (Homo sapiens, UniProt P0DMV8, E110D); assay: ITC of HSP70 preincubated with competing compound; type: binding; details: ITC competition
T2 construct: His6 (N); made in house; host or cells: E. coli BL21 Star (DE3)
Source text: FIGS. 3A-3L illustrate that PET-16 binds directly to ADP-bound HSP70 and DnaK. Specifically, FIGS. 3A-3H are isothermal calorimetric titration (ITC) assays of the indicated compounds (NRLLLTG—SEQ ID NO: 7, PES or PET-16) with purified HSP70-ADP, DnaK-ADP or HSP70-ATP proteins. The data are representative of three independent experiments. FIGS. 3I and 3J are ITC assays for the interaction between HSP70 (aa 386-616 of SEQ ID NO: 2) protein and PET-16 (I) or TPP (J). Binding constants (Kd values) are shown (average and s.d. from three independent experiments). PET-16 also binds directly to the purified, full-length, nucleotide-free HSP70 protein, with a reported dissociation constant of 5.2+/−0.1 micromolar, which is the average and standard deviation from two independent experiments (data not shown). FIG. 3K is ITC assay of HSP70 protein preincubated with ADP and PES for 1 h. The mixture was titrated into the sample cell containing PET-16. The data are representative of three independent ITC experiments. FIG. 3L are western blots of human lung carcinoma (H1299) cells that were pretreated with DMSO or excess (8×) PET-16 for 1 h prior to the addition of 20 μM B-PES for 5 h and examined for the expression of HSP70 or BCL-xL. B-PES-containing complexes were captured by Avidin resins and immunoblotted either with anti-HSP70 or anti-BCL-xL antibody. […]

ATP-HSP70 (WT) = molecular target: T3, ATP-HSP70 (WT) (Homo sapiens, UniProt P0DMV8, E110D); assay: ITC binding to ATP-bound full-length HSP70
T3 construct: Full-length recombinant proteins of HSP70 (aa 1-641) as well as DnaK (aa 1-638); His6 (N); made in house; host or cells: E. coli BL21 Star (DE3)
Source text: The human stress-inducible HSP70 (residues 1-641 or 386-616 of SEQ ID NO: 2) and E. coli DnaK (residues 1-638, 389-607, or 393-507 of SEQ ID NO: 4) were cloned into the pET25 vector (EMD Millipore Chemicals, Inc., Billerica, Mass., USA) between the NdeI and XhoI restriction sites. The full-length HSP70 and DnaK mutants were constructed by PCR-based site-directed mutagenesis using the QuikChange™ Site-Directed Mutagenesis Kit (Agilent Technologies, Inc., Santa Clara, Calif., USA). All plasmid inserts were verified by DNA sequencing. All HSP70 and DnaK variants were produced with a N-terminal His6-tag in the E. coli BL21 Star (DE3) strain (Invitrogen catalog number C6010-03). The resulting strains were grown at 37° C. in LB medium containing 50 μg/mL of carbenicillin (Sigma-Aldrich Co., St. Louis, Mo., USA). At an OD600 about 0.3 to about 0.5, protein expression was induced with 0.5 mM isopropyl-β-D-thiogalactopyranoside (IPTG), and cells were subsequently grown at 25° C. for about 16 h. Cells were collected by centrifugation and resuspended in the Bugbuster® Master Mix (EMD Millipore Chemicals catalog number 71456-4), supplemented with protease inhibitors, 1 mM diethiothreitol (DTT) and 20 mM imidazole. The His6-tagged fusion proteins were isolated on Ni^2+-chelating resins (Ni-NTA Superflow, Qiagen catalog number 30410) by standard procedures. When necessary, size-exclusion chromatography on a Superdex® 200 or a Superose® 6 10/300 GL columns (GE Healthcare) analytical column pre-equilibrated with 1× Dulbecco's Phosphate Buffered Saline (DPBS—Invitrogen 14190-136), 1 mM Tris-HCl (pH 7.4) or 10 mM Tris-HCl (pH 7) was used as the final purification step. The purified DnaK proteins were dialyzed thoroughly against 1× DPBS with 5 mM DTT at 4° C., for crystallization trials involving the small molecule inhibitor PET-16. For isothermal titration calorimetry studies, all HSP70 and DnaK variants were dialyzed extensively against the buffers as noted below under the section entitled “Isothermal Titration calorimetry Studies”. […]

[1] = ITC, wild-type full-length ADP-bound HSP70

T1 sequence (P0DMV8 whole entry E110D, the tested form may be a part): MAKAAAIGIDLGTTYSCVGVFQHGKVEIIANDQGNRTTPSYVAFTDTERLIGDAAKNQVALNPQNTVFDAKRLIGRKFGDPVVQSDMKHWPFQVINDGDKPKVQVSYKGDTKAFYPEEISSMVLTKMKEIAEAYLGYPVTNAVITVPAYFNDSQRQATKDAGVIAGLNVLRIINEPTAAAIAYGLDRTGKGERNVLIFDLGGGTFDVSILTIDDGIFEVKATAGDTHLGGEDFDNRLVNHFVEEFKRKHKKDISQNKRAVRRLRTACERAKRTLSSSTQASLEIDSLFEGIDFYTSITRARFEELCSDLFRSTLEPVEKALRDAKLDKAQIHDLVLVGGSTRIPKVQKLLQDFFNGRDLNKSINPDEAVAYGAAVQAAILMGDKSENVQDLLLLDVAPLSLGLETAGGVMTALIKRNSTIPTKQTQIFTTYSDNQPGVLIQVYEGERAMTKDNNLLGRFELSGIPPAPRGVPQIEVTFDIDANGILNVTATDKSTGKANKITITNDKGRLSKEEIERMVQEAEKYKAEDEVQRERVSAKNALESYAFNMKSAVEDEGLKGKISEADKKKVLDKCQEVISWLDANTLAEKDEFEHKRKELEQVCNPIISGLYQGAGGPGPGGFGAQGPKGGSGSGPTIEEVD
T2 sequence (P0DMV8 whole entry E110D): as the sequence (P0DMV8 whole entry E110D, the tested form may be a part) above
T3 sequence (P0DMV8 whole entry E110D, the tested form may be a part): as above

SMILES	Kd (ADP-HSP70 (WT, aa 1-641); [1])	binding to HSP70 after pre-incubation with the other compound (PES / PET-16) (HSP70)	interaction with ATP-bound HSP70 (ATP-HSP70 (WT); in words)	Kd (ADP-HSP70 (WT, aa 1-641); dimeric ADP-bound HSP70 (N=0.5))	Kd (ADP-HSP70 (WT, aa 1-641); tetrameric ADP-bound HSP70 (N=0.25))	Kd (ATP-HSP70 (WT); wild-type full-length ATP-bound HSP70)
NS(=O)(=O)C#Cc1ccccc1 [PES, 2-Phenylethynesulfonamide, reference compound]	~5.7 µM	impaired	notably reduced			
C(#C[P+](c1ccccc1)(c1ccccc1)c1ccccc1)c1ccccc1.[Br-] [PET-16, triphenyl(phenylethynyl)phosphonium bromide]	~3.8 µM	markedly reduced		3.8 µM	1.3 µM	130 ± 8.3 µM

Reference: patent US10010560B2, “Small molecule HSP70 inhibitors” (THE TRUSTEES OF THE UNIVERSITY OF PENNSYLVANIA, priority 2014, dated 2018)
